The results in this text go back to patent publication US10336697B2, “Spiro[cyclobutane-1,3′-indolin]-2′-one derivatives as bromodomain inhibitors” (Orion Corporation, priority 2015, dated 2019).

The target in this assay is Bet BRD4 full length bromo-domain protein (Homo sapiens, UniProt O60885). The experiment in a line: Bet bromodomain TR-FRET assay (displacement of acetyl histone peptide). The assay is classed as binding. The conditions noted are these: Bet BRD4 full length bromodomain protein, 300 nM acetyl histone peptide substrate, read-out: IC50. (TR-FRET usually uses a lanthanide donor and a delayed reading to cut background.)

SMILES strings stand for the structures.

As for `NC1(COc2cc(NS(=O)(=O)c3ccc(Cl)cc3F)cc3c2NC(=O)C32CCC2)CC1` [compound 207, N-(7′-((1-aminocyclopropyl)methoxy)-2′-oxospiro[cyclobutane-1,3′-indolin]-5′-yl)-4-chloro-2-fluorobenzenesulfonamide], the IC50 is under 600 nM.
As for `COc1ccccc1S(=O)(=O)Nc1cc(Oc2cc[nH]c(=O)c2)c2c(c1)C1(CCC1)C(=O)N2` [compound 213, 2-Methoxy-N-(2′-oxo-7′-((2-oxo-1,2-dihydropyridin-4-yl)oxy)spiro[cyclobutane-1,3′-indolin]-5′-yl)benzenesulfonamide], the IC50 is under 600 nM.
For `COc1ccccc1S(=O)(=O)Nc1cc(OC2CCN(C)CC2)c2c(c1Br)C1(CCC1)C(=O)N2` [compound 216, N-(4′-bromo-7′-((1-methylpiperidin-4-yl)oxy)-2′-oxospiro[cyclobutane-1,3′-indolin]-5′-yl)-2-methoxybenzenesulfonamide], the IC50 was over 1000 nM.
As for `CN1CCC(Oc2cc(NC(=O)/C=C/c3ccccc3)cc3c2NC(=O)C32CCC2)CC1` [compound 219, N-(7′-((1-methylpiperidin-4-yl)oxy)-2′-oxospiro[cyclobutane-1,3′-indolin]-5′-yl)cinnamamide], the figure is under 600 nM; as for `CN1CCC(Oc2cc(NC(=O)c3ccc(Cl)cc3F)cc3c2NC(=O)C32CCC2)CC1` [compound 224, 4-Chloro-2-fluoro-N-(7′-((1-methylpiperidin-4-yl)oxy)-2′-oxospiro[cyclobutane-1,3′-indolin]-5′-yl)benzamide], over 1000 nM.

The term IC50 denotes the concentration that gives 50% inhibition.
